Legend:
native geph = experiment: µSPOT peptide microarray binding assay with native geph from mouse brain lysate; details: normalized to most prominent spot, n = 2 array-internal duplicate
gephE = experiment: µSPOT peptide microarray binding assay with recombinant gephE; details: normalized to most prominent spot, n = 2 array-internal duplicate
[1] = overlapping GlyR β peptide library on µSPOT array, 3% mouse brain lysate
[2] = overlapping GlyR β peptide library on µSPOT array, 50 nM gephE, anti-gephyrin 3B11/HRP chemiluminescence
[3] = overlapping GABAAR α3 peptide library on µSPOT array, 6% mouse brain lysate
[4] = overlapping GABAAR α3 peptide library on µSPOT array, 20 nM gephE

Row | Sequence | Native geph Binding Intensity [norm.] (native geph; [1]) | gephE Binding Intensity [norm.] (gephE; [2]) | Native geph Binding Intensity [norm.] (native geph; [3]) | gephE Binding Intensity [norm.] (gephE; [4])
1 | PRDFELSNYDCYGKPIEVNN [Glycine receptor subunit beta_027, GlyR β residues 427-446] | 0.521 | 0.428 |  | 
2 | GSLPRDFELSNYDCYGKPIE [Glycine receptor subunit beta_026, GlyR β residues 424-443] | 0.134 | 0.132 |  | 
3 | KDTEFSTISKSAAAPSASST [GABAAR α3 residues 408-427, µSpot library] |  |  | 0.136 | 0.020
4 | EFSTISKSAAAPSASSTPTA [GABAAR α3 residues 411-430, µSpot library] |  |  | 0.127 | 0.028
5 | WEGKKVPEALEMKKKTPAAP [GABAAR α3 residues 369-388, µSpot library] |  |  | 0.105 | 0.048
6 | NLAKDTEFSTISKSAAAPSA [GABAAR α3 residues 405-424, µSpot library] |  |  | 0.122 | 0.029
7 | NDFSIVGSLPRDFELSNYDC [Glycine receptor subunit beta_024, GlyR β residues 418-437] | 0.561 | 0.599 |  | 
8 | SWAWEGKKVPEALEMKKKTP |  |  | 0.118 | 0.064
9 | KARIAKAEQADGKGGNAAKK [Glycine receptor subunit beta_006, GlyR β residues 364-383] | 0.091 | 0.040 |  | 
10 | ASPKATYVQDSPAETKTYNS [GABAAR α3 residues 432-451, µSpot library] |  |  | 0.050 | 0.020
11 | DCYGKPIEVNNGLGKPQAKN [Glycine receptor subunit beta_030, GlyR β residues 436-455] | 0.093 | 0.049 |  | 
12 | KSAAAPSASSTPTAIASPKA [GABAAR α3 residues 417-436, µSpot library] |  |  | 0.103 | 0.030
13 | NAAKKNTVNGTGTPVHISTL [Glycine receptor subunit beta_011, GlyR β residues 379-398] | 0.077 | 0.011 |  | 
14 | VVQVMLNNPKRVEAEKARIA [Glycine receptor subunit beta_001, GlyR β residues 349-368] | 0.081 | 0.017 |  | 
15 | ADGKGGNAAKKNTVNGTGTP [Glycine receptor subunit beta_009] | 0.067 | 0.015 |  | 
16 | IAKAEQADGKGGNAAKKNTV [Glycine receptor subunit beta_007] | 0.066 | 0.025 |  | 
17 | KGGNAAKKNTVNGTGTPVHI [Glycine receptor subunit beta_010] | 0.077 | 0.024 |  | 
18 | TISKSAAAPSASSTPTAIAS [GABAAR α3 residues 414-433, µSpot library] |  |  | 0.116 | 0.024
19 | FELSNYDCYGKPIEVNNGLG [Glycine receptor subunit beta_028, GlyR β residues 430-449] | 0.180 | 0.112 |  | 
20 | PEALEMKKKTPAAPTKKNTT [GABAAR α3 residues 375-394, µSpot library] |  |  | 0.071 | 0.038
21 | SNYDCYGKPIEVNNGLGKPQ [Glycine receptor subunit beta_029, GlyR β residues 433-452] | 0.204 | 0.216 |  | 
22 | TRCKKVCTSKSDLRSNDFSI [Glycine receptor subunit beta_019, GlyR β residues 403-422] | 0.089 | 0.033 |  | 

Row | Sequence | Native geph Binding Intensity [norm.] (native geph; [1]) | gephE Binding Intensity [norm.] (gephE; [2]) | Native geph Binding Intensity [norm.] (native geph; [3]) | gephE Binding Intensity [norm.] (gephE; [4])
23 | KNKKPPPAKPVIPTAAKRID [Glycine receptor subunit beta_036, GlyR β residues 454-473] | 0.068 | 0.016 |  | 
24 | KKKTPAAPTKKNTTFNIVGT [GABAAR α3 residues 381-400, µSpot library] |  |  | 0.115 | 0.053
25 | YVQDSPAETKTYNSVSKVDK [GABAAR α3 residues 438-457, µSpot library] |  |  | 0.058 | 0.073
26 | GKPIEVNNGLGKPQAKNKKP [Glycine receptor subunit beta_031, GlyR β residues 439-458] | 0.069 | 0.036 |  | 
27 | EAEKARIAKAEQADGKGGNA [Glycine receptor subunit beta_005, GlyR β residues 361-380] | 0.113 | 0.024 |  | 
28 | SIVGSLPRDFELSNYDCYGK [Glycine receptor subunit beta_025, GlyR β residues 421-440] | 0.301 | 0.291 |  | 
29 | VGETRCKKVCTSKSDLRSND [Glycine receptor subunit beta_018, GlyR β residues 400-419] | 0.074 | 0.011 |  | 
30 | STPTAIASPKATYVQDSPAE [GABAAR α3 residues 426-445, µSpot library] |  |  | 0.067 | 0.019
31 | VMLNNPKRVEAEKARIAKAE [Glycine receptor subunit beta_002, GlyR β residues 352-371] | 0.082 | 0.010 |  | 
32 | TPVHISTLQVGETRCKKVCT [Glycine receptor subunit beta_015, GlyR β residues 391-410] | 0.060 | 0.013 |  | 
33 | TTFNIVGTTYPINLAKDTEF [GABAAR α3 residues 393-412, µSpot library] |  |  | 0.538 | 0.457
34 | SASSTPTAIASPKATYVQDS [GABAAR α3 residues 423-442, µSpot library] |  |  | 0.075 | 0.022
35 | LGKPQAKNKKPPPAKPVIPT [Glycine receptor subunit beta_034, GlyR β residues 448-467] | 0.061 | 0.022 |  | 
36 | KKVPEALEMKKKTPAAPTKK [GABAAR α3 residues 372-391, µSpot library] |  |  | 0.081 | 0.038
37 | KKNTVNGTGTPVHISTLQVG [Glycine receptor subunit beta_012] | 0.085 | 0.023 |  | 
38 | NNGLGKPQAKNKKPPPAKPV [Glycine receptor subunit beta_033, GlyR β residues 445-464] | 0.041 | 0.055 |  | 
39 | GTGTPVHISTLQVGETRCKK [Glycine receptor subunit beta_014, GlyR β residues 388-407] | 0.068 | 0.044 |  | 
40 | TKRSWAWEGKKVPEALEMKK |  |  | 0.033 | 0.049
41 | CTSKSDLRSNDFSIVGSLPR [Glycine receptor subunit beta_021, GlyR β residues 409-428] | 0.379 | 0.645 |  | 
42 | YPINLAKDTEFSTISKSAAA [GABAAR α3 residues 402-421, µSpot library] |  |  | 0.114 | 0.039
43 | HISTLQVGETRCKKVCTSKS [Glycine receptor subunit beta_016, GlyR β residues 394-413] | 0.042 | 0.042 |  | 
44 | LEMKKKTPAAPTKKNTTFNI [GABAAR α3 residues 378-397, µSpot library] |  |  | 0.085 | 0.059

Source: paper PMC7753147, “High-throughput determination of protein affinities using unmodified peptide libraries in nanomolar scale” (iScience, 2020)
